The text below walks through data of PMC10937238 (Saudi Pharmaceutical Journal : SPJ, 2024).

Molecules are shown by their SMILES.

Assay [1] concerns the target T1, MERS-CoV PLpro (Human betacoronavirus 2c EMC/2012, UniProt K0BWD0). Type of assay: binding.
The target in assay [2] is T1, MERS-CoV PLpro. As to the kind of experiment: biochemical. In kind it is binding. The note with it: read-out: SA (111.5 μM).
Assay [3] deals with T1, MERS-CoV PLpro. Nature of the assay: biochemical.

As for `COc1ccc2c(c1)c(CC(=O)O)c(C)n2C(=O)c1ccc(Cl)cc1` [Indomethacin], the “Indomethacin (279.5 μM)” value at MERS-CoV PLpro [1] came out at 1.44 °C.
As usually defined, the IC50 is the midpoint of a concentration-inhibition curve. Consider `COc1cc(/C=C/C(=O)O)cc(OC)c1O` [sinapic acid], for which the ΔTm at 111.5 µM at MERS-CoV PLpro [2] was found to be 18.4 °C. Besides, half-maximal inhibition against MERS-CoV PLpro [3] (IC50) required 68.6 µM.
